Laboratory results published in US4524135A.
In brackets after ≈: the same amount, converted by molar mass. Several values for one entry are separate records, joined by “and”; a condition that tells them apart may be missing. Identical values can stand only once.

Experiments:
[1] = test system: Streptococcus pneumoniae Park I; assay: Agar-dilution test; type: cell-based
[2] = test system: Staphylococcus epidermidis EPI2; assay: Agar-dilution test
[3] = test system: Staphylococcus aureus ATCC 6738P; assay: Agar-plate disc-diffusion test; type: cell-based; conditions: 1 mg/ml suspension in water, 7-mm disc, 24-48 hours at 25-37° C.
[4] = test system: Micrococcus luteus ATCC 9341; assay: Agar-plate disc-diffusion test; type: cell-based; conditions: 1 mg/ml suspension in water, 7-mm disc, 24-48 hours at 25-37° C.
[5] = test system: Staphylococcus aureus X400; conditions: agar dilution; methicillin-resistant strain
Staphylococcus aureus = assay: Experimental bacterial infection in mice; type: in vivo; conditions: subcutaneous, two doses
Excerpt: (§1) The results of in vivo tests to evaluate the effectiveness of the derivatives against experimental bacterial infections in mice are given in Table III. […] 81, 233-235 (1961)].

Streptococcus pyogenes = assay: Experimental bacterial infection in mice; type: in vivo; conditions: two doses
Excerpt: as §1

[6] = test system: Staphylococcus aureus X1.1; assay: Agar-dilution test
[7] = test system: Bacillus subtilis ATCC 6633; assay: Agar-plate disc-diffusion test; type: cell-based; conditions: 1 mg/ml suspension in water, 7-mm disc, 24-48 hours at 25-37° C.
[8] = test system: Streptococcus Group D X66; assay: Agar-dilution test
[9] = test system: Staphylococcus epidermidis EPI1; conditions: agar dilution
[10] = test system: Streptococcus pyogenes C203; assay: Agar-dilution test
[11] = test system: Staphylococcus aureus V41; assay: Agar-dilution test; type: cell-based; conditions: penicillin-resistant strain
Toxicity in mice = conditions: mouse, in vivo, iv, administered intravenously
Excerpt: | ^a Administered intravenously

Streptococcus Group 9960 = conditions: agar dilution

| Compound | MIC [1] | MIC [2] | Size of Zone of Inhibition [3] [mm] | Size of Zone of Inhibition [4] [mm] | MIC [5] | ED50 (Staphylococcus aureus) | ED50 (Streptococcus pyogenes; oral) [mg/kg × 2] | ED50 (Streptococcus pyogenes; subcutaneous) [mg/kg × 2] | MIC [6] | Size of Zone of Inhibition [7] [mm] | Size of Zone of Inhibition ([7]; grown on minimal nutrient agar) [mm] | MIC [8] [µg/mL] | MIC [9] | MIC [10] | MIC [11] | LD50 (Toxicity in mice) [mg/kg] | MIC (Streptococcus Group 9960) [µg/mL] |
| --- | --- | --- | --- | --- | --- | --- | --- | --- | --- | --- | --- | --- | --- | --- | --- | --- | --- |
| CCCCCCCCCC(=O)N[C@@H](Cc1c[nH]c2ccccc12)C(=O)N[C@@H](CC(N)=O)C(=O)N[C@@H](CC(=O)O)C(=O)N[C@@H]1C(=O)NCC(=O)N[C@@H](CCCN)C(=O)N[C@@H](CC(=O)O)C(=O)N[C@H](C)C(=O)N[C@@H](CC(=O)O)C(=O)NCC(=O)N[C@H](CO)C(=O)N[C@@H]([C@H](C)CC(=O)O)C(=O)N[C@@H](CC(=O)c2ccccc2N)C(=O)O[C@@H]1C [Example 6] | 1 µg/mL and 0.5 µg/mL | 1 µg/mL and 0.5 µg/mL | 24 | 22 | 2 µg/mL and 1 µg/mL | 0.28 mg/kg × 2 | 66 | 0.03 | 1 µg/mL and 0.5 µg/mL | 20 | 29 | 16 (≈ 9.87 µM) | 2 µg/mL and 1 µg/mL | 0.25 µg/mL and 0.125 µg/mL | 1 µg/mL and 0.5 µg/mL | > 300 | 2 (≈ 1.23 µM) |
| CCCCCCCCCC(=O)N[C@@H](Cc1ccccc1)C(=O)N[C@@H](Cc1c[nH]c2ccccc12)C(=O)N[C@@H](CC(N)=O)C(=O)N[C@@H](CC(=O)O)C(=O)N[C@@H]1C(=O)NCC(=O)N[C@@H](CCCN)C(=O)N[C@@H](CC(=O)O)C(=O)N[C@H](C)C(=O)N[C@@H](CC(=O)O)C(=O)NCC(=O)N[C@H](CO)C(=O)N[C@@H]([C@H](C)CC(=O)O)C(=O)N[C@@H](CC(=O)c2ccccc2N)C(=O)O[C@@H]1C [Example 7, NTrp-[N-(n-Decanoyl)-L-phenylalanyl]-A-21978C Nucleus] | 0.5 µg/mL (≈ 0.283 µM) | 0.5 µg/mL (≈ 0.283 µM) | 30 | 24 | 1 µg/mL (≈ 0.566 µM) | 0.7 mg/kg × 2 and 0.98 mg/kg × 2 | > 200 | 0.39 | 0.5 µg/mL (≈ 0.283 µM) | 22 | 31 | 8 (≈ 4.53 µM) | 1 µg/mL (≈ 0.566 µM) | 0.25 µg/mL (≈ 0.141 µM) | 0.5 µg/mL (≈ 0.283 µM) | 600 | 2 (≈ 1.13 µM) |
| CCCCCCCCCCCCOc1ccc(C(=O)N[C@@H](Cc2c[nH]c3ccccc23)C(=O)N[C@H](CC(N)=O)C(=O)N[C@@H](CC(=O)O)C(=O)N[C@@H]2C(=O)NCC(=O)N[C@@H](CCCN)C(=O)N[C@@H](CC(=O)O)C(=O)N[C@H](C)C(=O)N[C@@H](CC(=O)O)C(=O)NCC(=O)N[C@H](CO)C(=O)N[C@@H]([C@H](C)CC(=O)O)C(=O)N[C@@H](CC(=O)c3ccccc3N)C(=O)O[C@@H]2C)cc1 [Example 8, NTrp -p-(n-dodecyloxy)benzoyl-A-21978C Nucleus] | – | 2 µg/mL (≈ 1.14 µM) | 20 | 18 | 2 µg/mL (≈ 1.14 µM) | 3.35 mg/kg × 2 | > 200 | 0.31 | 1 µg/mL (≈ 0.57 µM) | 13 | 20 | 2 (≈ 1.14 µM) | 4 µg/mL (≈ 2.28 µM) | 0.25 µg/mL (≈ 0.142 µM) | 1 µg/mL (≈ 0.57 µM) | 67.5 | 1 (≈ 0.57 µM) |
